In patent US9376425B2, “Heterocyclic compounds as MDM2 inhibitors for the treatment of cancer” (AMGEN INC., priority 2011, dated 2016):

Target: T1, human MDM2 (GST-hMDM2 1-188), interaction with biotinylated-p53 (1-83) (Homo sapiens, UniProt Q00987)
T1 construct: Amino acid residues 1-188 of human MDM2 were expressed; made in house; host or cells: Escherichia coli
Experiment: improved HTRF assay (HTRF2 assay), inhibition of HDM2-p53 interaction
Assay type: binding
Settings: 0.2 nM GST-hMDM2, 0.5 nM biotinylated-p53, 100 mM KF
Procedure, shortened: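 Time-resolved fluorescence (HTRF) read after >4 h equilibration with SA-XLent/anti-GST cryptate/KF detection reagents. Reaction: compound plus GST-hMDM2 for 20 min at room temperature, then E. coli-expressed biotinylated p53 residues 1-83 for 60 min, 2% DMSO final. Inhibition expressed versus nutlin-3.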

T1 sequence (Q00987 1-188): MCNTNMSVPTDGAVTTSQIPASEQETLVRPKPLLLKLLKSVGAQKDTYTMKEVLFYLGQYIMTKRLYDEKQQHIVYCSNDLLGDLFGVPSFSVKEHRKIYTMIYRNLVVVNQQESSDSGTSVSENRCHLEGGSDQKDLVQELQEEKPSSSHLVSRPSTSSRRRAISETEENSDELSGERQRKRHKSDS

Compound: Cc1nnc(C[C@H]2O[C@H](c3cccc(Cl)c3)[C@@H](c3ccc(Cl)cc3)N([C@H](CN(c3ccccc3F)S(=O)(=O)C3CC3)C3CC3)C2=O)o1 (single isomer, unassigned) [Example 403, N-((S)-2-((2R,3R,6R)-2-(3-Chlorophenyl)-3-(4-chlorophenyl)-6-((5-methyl-1,3,4-oxadiazol-2-yl)methyl)-5-oxomorpholino)-2-cyclopropylethyl)-N-(2-fluorophenyl)cyclopropanesulfonamide or N-((S)-2-((2S,3R,6R)-2-(3-chlorophenyl)-3-(4-chlorophenyl)-6-((5-methyl-1,3,4-oxadiazol-2-yl)methyl)-5-oxomorpholino)-2-cyclopropylethyl)-N-(2-fluorophenyl)cyclopropanesulfonamide]
- IC50: 2 nM

Compound: O=C(O)C[C@H]1OC(c2cccc(Cl)c2)C(c2ccc(Cl)cc2)N([C@H](CN(c2c(F)cccc2F)S(=O)(=O)C2CC2)C2CC2)C1=O (single isomer, unassigned) [Example 250]
- IC50: < 1 nM

Compound: CC[C@@H](CS(=O)(=O)CC1CC1)N1C(=O)[C@@H](CC(=O)O)O[C@H](c2cccc(Cl)c2)[C@H]1c1ccc(Cl)cc1 (single isomer, unassigned) [Example 191, 2-((2R,5R,6R)-6-(3-chlorophenyl)-5-(4-chlorophenyl)-4-((S)-1-((cyclopropylmethyl)sulfonyl)butan-2-yl)-3-oxomorpholin-2-yl)acetic acid or 2-((2S,5R,6R)-6-(3-chlorophenyl)-5-(4-chlorophenyl)-4-((S)-1-((cyclopropylmethyl)sulfonyl)butan-2-yl)-3-oxomorpholin-2-yl)acetic acid]
- IC50: 5 nM

Compound: O=C(O)C[C@H]1O[C@H](c2cccc(Cl)c2)[C@@H](c2ccc(Cl)cc2)N([C@H](CN(c2cc(F)ccc2F)S(=O)(=O)C2CC2)C2CC2)C1=O (single isomer, unassigned) [Example 275, 2-((2R,5R,6R)-6-(3-Chlorophenyl)-5-(4-chlorophenyl)-4-((S)-1-cyclopropyl-2-(N-(2,5-difluorophenyl)cyclopropanesulfonamido)ethyl)-3-oxomorpholin-2-yl)acetic acid or 2-((2S,5R,6R)-6-(3-chlorophenyl)-5-(4-chlorophenyl)-4-((S)-1-cyclopropyl-2-(N-(2,5-difluorophenyl)cyclopropanesulfonamido)ethyl)-3-oxomorpholin-2-yl)acetic acid]
- IC50: < 1 nM

Compound: CC[C@@H](CS(=O)(=O)c1ccccc1Cl)N1C(=O)[C@@H](CC(=O)O)O[C@H](c2cccc(Cl)c2)[C@H]1c1ccc(Cl)cc1 (single isomer, unassigned) [Example 137, 2-((2R,5R,6R)-6-(3-chlorophenyl)-5-(4-chlorophenyl)-4-((S)-1-((2-chlorophenyl)sulfonyl)butan-2-O-3-oxomorpholin-2-yl)acetic acid or 2-((2S,5R,6R)-6-(3-chlorophenyl)-5-(4-chlorophenyl)-4-((S)-1-((2-chlorophenyl)sulfonyl)butan-2-yl)-3-oxomorpholin-2-yl)acetic acid]
- IC50: 5 nM

Compound: C=CC[C@@H]1O[C@H](c2cccc(Cl)c2)[C@@H](c2ccc(Cl)cc2)N([C@@H](CC)CN(c2ccccn2)S(=O)(=O)C2CC2)C1=O (single isomer, unassigned) [Example 179, N-((S)-2-((2S,5R,6R)-2-allyl-6-(3-chlorophenyl)-5-(4-chlorophenyl)-3-oxomorpholino)butyl)-N-(pyridin-2-yl)cyclopropanesulfonamide or N-((S)-2-((2R,5R,6R)-2-allyl-6-(3-chlorophenyl)-5-(4-chlorophenyl)-3-oxomorpholino)butyl)-N-(pyridin-2-yl)cyclopropanesulfonamide]
- IC50: 141 nM

Compound: CC(C)(C)S(=O)(=O)C[C@H](C1CC1)N1C(=O)[C@@H](CC(=O)O)O[C@H](c2cccc(Cl)c2F)[C@H]1c1ccc(Cl)cc1.CC(C)(C)S(=O)(=O)C[C@H](C1CC1)N1C(=O)[C@H](CC(=O)O)O[C@H](c2cccc(Cl)c2F)[C@H]1c1ccc(Cl)cc1 (mixture of isomers) [Example 326, 2-((2R,5R,6R)-4-((S)-2-(tert-Butylsulfonyl)-1-cyclopropylethyl)-6-(3-chloro-2-fluorophenyl)-5-(4-chlorophenyl)-3-oxomorpholin-2-yl)acetic acid and 2-((2S,5R,6R)-4-((S)-2-(tert-butylsulfonyl)-1-cyclopropylethyl)-6-(3-chloro-2-fluorophenyl)-5-(4-chlorophenyl)-3-oxomorpholin-2-yl)acetic acid]
- IC50: < 1 nM

Compound: Cc1nnc(C[C@H]2O[C@@H](c3cccc(Cl)c3)[C@@H](c3ccc(Cl)cc3)N([C@H](CN(c3ccccc3F)S(=O)(=O)C3CC3)C3CC3)C2=O)o1 (single isomer, unassigned) [Example 404, N-((S)-2-((2S,3R,6R)-2-(3-Chlorophenyl)-3-(4-chlorophenyl)-6-((5-methyl-1,3,4-oxadiazol-2-yl)methyl)-5-oxomorpholino)-2-cyclopropylethyl)-N-(2-fluorophenyl)cyclopropanesulfonamide or N-((S)-2-((2R,3R,6R)-2-(3-chlorophenyl)-3-(4-chlorophenyl)-6-((5-methyl-1,3,4-oxadiazol-2-yl)methyl)-5-oxomorpholino)-2-cyclopropylethyl)-N-(2-fluorophenyl)cyclopropanesulfonamide]
- IC50: 134 nM

Compound: C[C@@H](CS(=O)(=O)C(C)(C)C)N1C(=O)[C@@H](CC(=O)NO)O[C@H](c2cccc(Cl)c2)[C@H]1c1ccc(Cl)cc1 (single isomer, unassigned) [Example 230, 2-((2R,5R,6R)-4-((S)-1-(tert-butylsulfonyl)propan-2-yl)-6-(3-chlorophenyl)-5-(4-chlorophenyl)-3-oxomorpholin-2-yl)-N-hydroxyacetamide or 2-((2S,5R,6R)-4-((S)-1-(tert-butylsulfonyl)propan-2-yl)-6-(3-chlorophenyl)-5-(4-chlorophenyl)-3-oxomorpholin-2-yl)-N-hydroxyacetamide]
- IC50: 7 nM

Compound: 2-((2R,5R,6R)-6-(3-chlorophenyl)-5-(4-chlorophenyl)-4-((S)-1-(N-(2-cyanophenyl)cyclopropanesulfonamido)butan-2-yl)-3-oxomorpholin-2-yl)acetic acid or 2-((2S,5R,6R)-6-(3-chlorophenyl)-5-(4-chlorophenyl)-4-((S)-1-(N-(2-cyanophenyl)cyclopropanesulfonamido)butan-2-yl)-3-oxomorpholin-2-yl)acetic acid [Example 207]
- IC50: < 1 nM

Compound: CC(C)(C)S(=O)(=O)C[C@H](C1CC1)N1C(=O)[C@@](C)(CC(=O)O)O[C@H](c2cccc(Cl)c2)[C@H]1c1ccc(Cl)cc1 (single isomer, unassigned) [Example 335, 2-((2R,5R,6R)-4-((S)-2-(tert-Butylsulfonyl)-1-cyclopropylethyl)-6-(3-chlorophenyl)-5-(4-chlorophenyl)-2-methyl-3-oxomorpholin-2-yl)acetic acid or 2-((2S,5R,6R)-4-((S)-2-(tert-butylsulfonyl)-1-cyclopropylethyl)-6-(3-chlorophenyl)-5-(4-chlorophenyl)-2-methyl-3-oxomorpholin-2-yl)acetic acid]
- IC50: 3 nM

Compound: CC(C)(C)S(=O)(=O)C[C@H](C1CC1)N1C(=O)[C@@H](CC(N)=O)O[C@H](c2cccc(Cl)c2)[C@H]1c1ccc(Cl)cc1 (single isomer, unassigned) [Example 357, 2-((2R,5R,6R)-4-((S)-2-(tert-Butylsulfonyl)-1-cyclopropylethyl)-6-(3-chlorophenyl)-5-(4-chlorophenyl)-3-oxomorpholin-2-yl)acetamide or 2-((2S,5R,6R)-4-((S)-2-(tert-butylsulfonyl)-1-cyclopropylethyl)-6-(3-chlorophenyl)-5-(4-chlorophenyl)-3-oxomorpholin-2-yl)acetamide]
- IC50: 6 nM

Compound: O=C(O)C[C@H]1O[C@H](c2cccc(Cl)c2)[C@@H](c2ccc(Cl)c(F)c2)N([C@H](CN(c2ccccc2F)S(=O)(=O)C2CC2)C2CC2)C1=O (single isomer, unassigned) [Example 314, 2-((2R,5R,6R)-5-(4-Chloro-3-fluorophenyl)-6-(3-chlorophenyl)-4-((S)-1-cyclopropyl-2-(N-(2-fluorophenyl)cyclopropanesulfonamido)ethyl)-3-oxomorpholin-2-yl)acetic acid or 2-((2S,5R,6R)-5-(4-chloro-3-fluorophenyl)-6-(3-chlorophenyl)-4-((S)-1-cyclopropyl-2-(N-(2-fluorophenyl)cyclopropanesulfonamido)ethyl)-3-oxomorpholin-2-yl)acetic acid]
- IC50: < 1 nM

Compound: O=C(O)C[C@H]1O[C@H](c2cccc(Cl)c2)[C@@H](c2ccc(Cl)cc2)N([C@H](CS(=O)(=O)c2ccncc2)C2CC2)C1=O (single isomer, unassigned) [Example 287, 2-((2R,5R,6R)-6-(3-Chlorophenyl)-5-(4-chlorophenyl)-4-((S)-1-cyclopropyl-2-(pyridin-4-ylsulfonyl)ethyl)-3-oxomorpholin-2-yl)acetic acid or 2-((2S,5R,6R)-6-(3-chlorophenyl)-5-(4-chlorophenyl)-4-((S)-1-cyclopropyl-2-(pyridin-4-ylsulfonyl)ethyl)-3-oxomorpholin-2-yl)acetic acid]
- IC50: 5 nM

Compound: C[C@H]1CCCN1S(=O)(=O)C[C@H](C1CC1)N1C(=O)[C@@](C)(CC(=O)O)O[C@H](c2cccc(Cl)c2)[C@H]1c1ccc(Cl)cc1 (single isomer, unassigned) [Example 337, 2-((2R,5R,6R)-6-(3-Chlorophenyl)-5-(4-chlorophenyl)-4-((S)-1-cyclopropyl-2-(((S)-2-methylpyrrolidin-1-yl)sulfonyl)ethyl)-2-methyl-3-oxomorpholin-2-yl)acetic acid or 2-((2S,5R,6R)-6-(3-chlorophenyl)-5-(4-chlorophenyl)-4-((S)-1-cyclopropyl-2-(((S)-2-methylpyrrolidin-1-yl)sulfonyl)ethyl)-2-methyl-3-oxomorpholin-2-yl)acetic acid]
- IC50: 50 nM
